Laboratory results reported in the CheMixHub viscosity set.

Assay: xn = mol fraction of the nth substance listed

CC(=O)CC(C)C + CCCCCCCO
viscosity [mPa·s], 100 kPa
Details | x1 = 0.0823 | x1 = 0.1682 | x1 = 0.2346 | x1 = 0.3569 | x1 = 0.4379 | x1 = 0.5614 | x1 = 0.6493 | x1 = 0.7489 | x1 = 0.8505 | x1 = 0.9471
293.15 K | 5.46 | 4.21 | 3.56 | 2.62 | 2.19 | 1.66 | 1.37 | 1.1 | 0.86 | 0.68
303.15 K | 4.09 | 3.24 | 2.78 | 2.08 | 1.76 | 1.35 | 1.13 | 0.91 | 0.72 | 0.59
313.15 K | 3.09 | 2.53 | 2.2 | 1.71 | 1.45 | 1.14 | 0.96 | 0.79 | 0.63 | 0.52
323.15 K | 2.37 | 1.98 | 1.76 | 1.4 | 1.22 | 0.98 | 0.83 | 0.68 | 0.56 | 0.47

O=C1CCCCC1 + CCCCCCCO
298.15 K, 101 kPa
Details | viscosity [mPa·s]
x2 = 0.1013 | 1.965
x2 = 0.1998 | 2.034
x2 = 0.3029 | 2.16
x2 = 0.4029 | 2.351
x2 = 0.4994 | 2.584
x2 = 0.5977 | 2.914
x2 = 0.6971 | 3.335
x2 = 0.8008 | 3.921
x2 = 0.8949 | 4.663

CC(=O)CC(C)C + CCCCCCO
viscosity [mPa·s], 100 kPa
Details | x1 = 0.0851 | x1 = 0.1723 | x1 = 0.2541 | x1 = 0.3619 | x1 = 0.4246 | x1 = 0.5566 | x1 = 0.6612 | x1 = 0.7441 | x1 = 0.8559 | x1 = 0.9468
293.15 K | 3.74 | 2.71 | 2 | 1.37 | 1.12 | 0.78 | 0.65 | 0.6 | 0.56 | 0.56
303.15 K | 2.94 | 2.14 | 1.62 | 1.13 | 0.93 | 0.66 | 0.53 | 0.49 | 0.48 | 0.49
313.15 K | 2.32 | 1.79 | 1.38 | 0.96 | 0.79 | 0.54 | 0.43 | 0.41 | 0.41 | 0.43
323.15 K | 1.88 | 1.48 | 1.15 | 0.8 | 0.66 | 0.45 | 0.35 | 0.33 | 0.34 | 0.37

O=C1CCCCC1 + CCCCCCO
303.15 K, 101 kPa
Details | viscosity [mPa·s]
x1 = 0.1001 | 3.014
x1 = 0.2599 | 2.391
x1 = 0.4199 | 2.008
x1 = 0.5798 | 1.861
x1 = 0.7404 | 1.738

OCCOc1ccccc1 + CCCCCCO
viscosity [mPa·s], 101 kPa
Details | x2 = 0.1 | x2 = 0.201 | x2 = 0.301 | x2 = 0.401 | x2 = 0.501 | x2 = 0.601 | x2 = 0.701 | x2 = 0.801 | x2 = 0.9
303.15 K | 10.95 | 9.244 | 8.099 | 7.25 | 6.508 | 5.696 | 4.981 | 4.335 | 3.978
313.15 K | 7.906 | 7.005 | 6.239 | 5.548 | 4.764 | 4.151 | 3.605 | 3.222 | 2.981
323.15 K | 5.285 | 4.821 | 4.389 | 3.866 | 3.518 | 3.128 | 2.716 | 2.358 | 2.148

CCCCCCCCCCCCCC[P+](CCCCCC)(CCCCCC)CCCCCC.c1nnc[n-]1 + CCCCCCn1cc[n+](C)c1.O=S(=O)([N-]S(=O)(=O)C(F)(F)F)C(F)(F)F
viscosity [mPa·s], 100 kPa
Details | x1 = 0.107 | x1 = 0.208 | x1 = 0.307 | x1 = 0.4 | x1 = 0.507 | x1 = 0.622 | x1 = 0.718 | x1 = 0.805 | x1 = 0.9
293.15 K | 132 | 220 | 308 | 452 | 677 | 901 | 1162 | 1349 | 1458
298.15 K | 103 | 165 | 227 | 329 | 485 | 633 | 811 | 932 | 1013
303.15 K | 81 | 127 | 171 | 245 | 355 | 456 | 579 | 664 | 720
308.15 K | 65 | 99 | 132 | 186 | 267 | 337 | 422 | 484 | 524
313.15 K | 54 | 79 | 104 | 145 | 204 | 253 | 314 | 359 | 389
318.15 K | – | 64 | 83 | 115 | 159 | 194 | 239 | 273 | 296
323.15 K | – | 53 | 67 | 93 | 127 | 152 | 185 | 211 | 229

CC(=O)CC(C)C + CCCCCO
viscosity [mPa·s]
Details | x1 = 0.1011 | x1 = 0.1974 | x1 = 0.304 | x1 = 0.4023 | x1 = 0.5022 | x1 = 0.6064 | x1 = 0.7079 | x1 = 0.7955 | x1 = 0.8962
298.15 K, 101 kPa | 2.47 | 1.89 | 1.46 | 1.2 | 1 | 0.856 | 0.738 | 0.668 | 0.592
298.15 K, 101.3 kPa | 2.47 | 1.89 | 1.46 | 1.2 | 1 | 0.856 | 0.738 | 0.668 | 0.592
303.15 K, 101.3 kPa | 2.2 | 1.7 | 1.32 | 1.1 | 0.919 | 0.792 | 0.694 | 0.624 | 0.558
308.15 K, 101.3 kPa | 1.96 | 1.53 | 1.2 | 1.01 | 0.846 | 0.735 | 0.646 | 0.589 | 0.53
313.15 K, 101.3 kPa | 1.75 | 1.38 | 1.09 | 0.915 | 0.781 | 0.683 | 0.601 | 0.555 | 0.501

O=C1CCCCC1 + CCCCCO
303.15 K, 101 kPa
Details | viscosity [mPa·s]
x1 = 0.1012 | 2.388
x1 = 0.2586 | 1.983
x1 = 0.4201 | 1.737
x1 = 0.5809 | 1.622
x1 = 0.7407 | 1.565

CC=Cc1ccc2c(c1)OCO2 + CCCCCOC(C)=O
Details | viscosity [mPa·s]
298.15 K, 101 kPa, x1 = 0.137 | 0.958

CC(=O)CC(C)C + CCCCN(CCCC)CCCC
viscosity [mPa·s], 101 kPa
Details | 298.15 K | 303.15 K | 308.15 K
x2 = 0.0501 | 0.564 | 0.53 | 0.499
x2 = 0.1 | 0.593 | 0.556 | 0.524
x2 = 0.1499 | 0.622 | 0.582 | 0.549
x2 = 0.2004 | 0.653 | 0.609 | 0.576
x2 = 0.25 | 0.685 | 0.638 | 0.601
x2 = 0.3017 | 0.719 | 0.668 | 0.628
x2 = 0.4004 | 0.786 | 0.727 | 0.681
x2 = 0.4999 | 0.856 | 0.788 | 0.737
x2 = 0.6004 | 0.928 | 0.855 | 0.796
x2 = 0.6962 | 1.002 | 0.922 | 0.855
x2 = 0.8004 | 1.087 | 0.998 | 0.922
x2 = 0.8496 | 1.129 | 1.033 | 0.954
x2 = 0.8997 | 1.171 | 1.07 | 0.988
x2 = 0.9499 | 1.22 | 1.114 | 1.023

CC(=O)CC(C)C + CCCCO
101 kPa
Details | viscosity [mPa·s]
303.15 K, x2 = 0.1311 | 0.542
303.15 K, x2 = 0.2531 | 0.592
303.15 K, x2 = 0.367 | 0.653
303.15 K, x2 = 0.4745 | 0.748
303.15 K, x2 = 0.5795 | 0.862
303.15 K, x2 = 0.6729 | 0.997
303.15 K, x2 = 0.7627 | 1.185
303.15 K, x2 = 0.8465 | 1.42
303.15 K, x2 = 0.9254 | 1.728
313.15 K, x2 = 0.1311 | 0.482
313.15 K, x2 = 0.2533 | 0.526
313.15 K, x2 = 0.3677 | 0.578
313.15 K, x2 = 0.4745 | 0.647
313.15 K, x2 = 0.5754 | 0.733
313.15 K, x2 = 0.6704 | 0.844
313.15 K, x2 = 0.7604 | 0.98
313.15 K, x2 = 0.9236 | 1.43
323.15 K, x2 = 0.1319 | 0.428
323.15 K, x2 = 0.2542 | 0.464
323.15 K, x2 = 0.3688 | 0.507
323.15 K, x2 = 0.4759 | 0.565
323.15 K, x2 = 0.5759 | 0.621
323.15 K, x2 = 0.6721 | 0.707
323.15 K, x2 = 0.7597 | 0.801
323.15 K, x2 = 0.8452 | 0.937
323.15 K, x2 = 0.9386 | 1.136

CCCCCCO + CCCCO
Details | viscosity [mPa·s]
294.55 K, 100 kPa, x2 = 0.31 | 3.994

CCOCC + CCCCO
303.16 K, 101 kPa
Details | viscosity [mPa·s]
x1 = 0.09 | 1.958
x1 = 0.17 | 1.512
x1 = 0.27 | 0.9582
x1 = 0.4 | 0.8084
x1 = 0.51 | 0.6978
x1 = 0.6 | 0.5936
x1 = 0.67 | 0.4746
x1 = 0.74 | 0.3798
x1 = 0.81 | 0.291

O=C1CCCCC1 + CCCCO
101 kPa
Details | viscosity [mPa·s]
298.15 K, x1 = 0.0997 | 2.13
298.15 K, x1 = 0.2002 | 1.87
298.15 K, x1 = 0.3022 | 1.73
298.15 K, x1 = 0.3878 | 1.66
298.15 K, x1 = 0.5036 | 1.63
298.15 K, x1 = 0.6016 | 1.64
298.15 K, x1 = 0.6966 | 1.67
298.15 K, x1 = 0.7992 | 1.74
298.15 K, x1 = 0.8984 | 1.82
303.15 K, x1 = 0.1001 | 1.855
303.15 K, x1 = 0.2591 | 1.662
303.15 K, x1 = 0.4202 | 1.556
303.15 K, x1 = 0.5804 | 1.517
303.15 K, x1 = 0.7265 | 1.534
303.15 K, x1 = 0.8935 | 1.622
